# From patent publication US20090018162A1, “USE OF 6-(3-CHLORO-2-FLUOROBENZYL)-1-[(2S)-1-HYDROXY-3-METHYLBUTAN-2-YL]-7-METHOXY-4-OXO-1,4-DIHYDROQUINOLINE-3-CARBOXYLIC ACID OR SALT THEREOF FOR TREATING RETROVIRUS INFECTION” (priority 2006, published 2009)
# Read-outs that look alike come from different tables or passages of the source.
# Legend:
# [1] = MTS cytotoxicity in monocyte/macrophage cultures; type: cell-based; conditions: human, fresh adherent monocyte/macrophage cultures, HIV-infected, macrophages, MTS, read-out: TC50
# Procedure: Anti-HIV Efficacy Evaluation in Fresh Human Monocyte/Macrophage. Monocytes/macrophages were allowed to adhere to the interior 60 wells of a 96 well flat bottomed plate for 2 to 18 hours at 37° C., 5% CO2. Following 6 to 14 days in culture, the monocyte/macrophage cultures were washed 3 times to remove any non-adherent cells and serially diluted test compounds were added followed by the addition of a pre-titered amount of HIV. Cultures were washed a final time by media removal 24 hours post infection, fresh compound added and the cultures continued for an additional six days. […] At assay termination, virus replication was measured by collecting cell-free supernatant samples which were analyzed for HIV p24 antigen content using a commercially available p24 ELISA assay (Coulter). […] MTS staining for PBMC viability to measure cytotoxicity. […] The mitochondrial enzymes of metabolically active cells metabolize MTS to yield a soluble formazan product. This allows the rapid quantitative analysis of cell viability and compound cytotoxicity. […] At termination of the assay, 20 μL of MTS reagent was added per well. The microtiter plates were then incubated 4-6 hrs at 37° C. The incubation intervals were chosen based on empirically determined times for optimal dye reduction. […] Data analysis.
# [2] = system: recombinant HIV-1 clones (patient protease/RT sequences in HIV-1 NL4-3); assay: microbe, parasite or virus in culture; type: cell-based; conditions: one experiment
# [3] = system: human PBMCs; conditions: 7 days
# [4] = system: HIV-1 clinical isolates
# [5] = system: drug-resistant HIV-1 isolates; assay: Anti-HIV efficacy in fresh human PBMCs, drug-resistant HIV-1 isolates; conditions: for IC50: Human immunodeficiency virus 1, PBMC, in Homo sapiens
# [6] = MTS staining for PBMC viability (cytotoxicity); conditions: human
# [7] = system: human PBMCs; assay: MTS staining for PBMC viability (cytotoxicity); conditions: read-out: TC50, PBMCs, MTS
# [8] = system: HIV-2 CDC 310319; conditions: HIV-2 CDC 310319 in PBMCs
# [9] = system: HIV-1 macrophage-tropic virus strains
# [10] = system: HIV-1 macrophage-tropic virus strains; assay: microbe, parasite or virus in culture; conditions: in Homo sapiens
# [11] = system: HIV-1 clinical isolates; assay: microbe, parasite or virus in culture; conditions: Human immunodeficiency virus 1, PBMC
# [12] = system: HIV-2 CDC 310319; assay: microbe, parasite or virus in culture; conditions: Human immunodeficiency virus 2, PBMC
compound,measurement,setting,value
"COc1cc2c(cc1Cc1cccc(Cl)c1F)c(=O)c(C(=O)O)cn2[C@H](CO)C(C)C [Compound I, 6-(3-chloro-2-fluorobenzyl)-1-[(2S)-1-hydroxy-3-methylbutan-2-yl]-7-methoxy-4-oxo-1,4-dihydroquinoline-3-carboxylic acid]",CC50 at 7 days,[1]; ADA assay,> 500 nM
same,CC50 at 7 days,[1]; Ba-L assay,> 500 nM
same,CC50 at 7 days,[1]; JR-CSF assay,> 100 nM
same,EC50,"[2]; Human immunodeficiency virus 1, NL43, 120 recombinant clones",1.06 nM
same,EC50,"[2]; Human immunodeficiency virus 1, NL43, Reference clone (NL4-3), ten replicates",1.11 nM
same,CC50,[3],> 100 nM
same,TI (TC50/IC50),[4]; HIV-1 96USHIPS7 in PBMCs,>384.6
same,TI (TC50/IC50),[4]; HIV-1 BFC01 in PBMCs,>85.5
same,TI (TC50/IC50),[4]; HIV-1 BR/92/021 in PBMCs,>131.6
same,TI (TC50/IC50),[4]; HIV-1 BR/92/025 in PBMCs,>1000.0
same,TI (TC50/IC50),[4]; HIV-1 BR/93/017 in PBMCs,>555.6
same,TI (TC50/IC50),[4]; HIV-1 BR/93/020 in PBMCs,>135.1
same,TI (TC50/IC50),[4]; HIV-1 BR/93/022 in PBMCs,>88.5
same,TI (TC50/IC50),[4]; HIV-1 CMU 02 in PBMCs,>79.4
same,TI (TC50/IC50),[4]; HIV-1 JV 1083 in PBMCs,>285.7
same,TI (TC50/IC50),[4]; HIV-1 RW/92/016 in PBMCs,>243.9
same,TI (TC50/IC50),[4]; HIV-1 UG/92/046 in PBMCs,>200.0
same,TI (TC50/IC50),[5]; HIV-1 52-52 in PBMCs,>588.2
same,TI (TC50/IC50),[5]; HIV-1 144-44 in PBMCs,>138.89
same,TI (TC50/IC50),[5]; HIV-1 1002-60 in PBMCs,>769.2
same,TI (TC50/IC50),[5]; HIV-1 1064-52 in PBMCs,>158.7
same,TI (TC50/IC50),[5]; HIV-1 MDR 769 in PBMCs,>555.6
same,TI (TC50/IC50),[5]; HIV-1 MDR 807 in PBMCs,>88.5
same,TI (TC50/IC50),[5]; HIV-1 MDR 1385 in PBMCs,>5000.0
same,TI (TC50/IC50),[5]; HIV-1 MDR 3761 in PBMCs,>137.0
same,IC50,[5]; HIV-1 52-52 (protease-inhibitor resistant) in PBMCs,0.17 nM
same,IC50,"[5]; against several viruses (e.g., MDR 1385, MDR 3761) in PBMCs",< 1 nM
same,IC50,[5]; multi-drug-resistant HIV-1 MDR 769 in PBMCs,0.18 nM
same,IC50,[5]; multi-drug-resistant HIV-1 MDR 807 in PBMCs,1.13 nM
same,IC50,[5]; multi-drug-resistant HIV-1 MDR 1385 in PBMCs,0.02 nM
same,IC50,[5]; multi-drug-resistant HIV-1 MDR 3761 in PBMCs,0.73 nM
same,CC50 at 7 days,[6],> 100 nM
same,CC50,[7]; 52-52 assay,> 100 nM
same,CC50,[7]; 96USHIPS7 assay,> 100 nM
same,CC50,[7]; 144-44 assay,> 100 nM
same,CC50,[7]; 1002-60 assay,> 100 nM
same,CC50,[7]; 1064-52 assay,> 100 nM
same,CC50,[7]; BFC01 assay,> 100 nM
same,CC50,[7]; BR/92/025 assay,> 100 nM
same,CC50,[7]; BR/93/017 assay,> 100 nM
same,CC50,[7]; BR/93/020 assay,> 100 nM
same,CC50,[7]; BR/93/022 assay,> 100 nM
same,CC50,[7]; CMU 02 assay,> 100 nM
same,CC50,[7]; HIV-2 CDC 310319 assay,> 100 nM
same,CC50,[7]; JV 1083 assay,> 100 nM
same,CC50,[7]; RW/92/016 assay,> 100 nM
same,CC50,[7]; UG/92/046 assay,> 100 nM
same,TI (TC50/IC50),[8],>188.7
same,TI (TC50/IC50),[9]; HIV-1 ADA in macrophages,>7142.9
same,TI (TC50/IC50),[9]; HIV-1 Ba-L in macrophages,>746.3
same,TI (TC50/IC50),[9]; HIV-1 JR-CSF in macrophages,>322.6
same,IC50,"[10]; Human immunodeficiency virus 1, BAL, Macrophage, HIV-1 Ba-L in macrophages",0.67 nM
same,IC50,"[10]; Human immunodeficiency virus 1, Macrophage, HIV-1 ADA in macrophages",0.07 nM
same,IC50,"[10]; Human immunodeficiency virus 1, Macrophage, HIV-1 JR-CSF in macrophages",0.31 nM
same,IC50,"[11]; HIV-1 96USHIPS7 (subtype /B, R5) in PBMCs",0.26 nM
same,IC50,"[11]; HIV-1 BR/92/021 (subtype B/B, R5) in PBMCs",0.76 nM
same,IC50,"[11]; HIV-1 BR/93/020 (subtype F/F, R5/X4) in PBMCs",0.74 nM
same,IC50,"[11]; HIV-1 CMU 02 (subtype /EA, X4) in PBMCs",1.26 nM
same,IC50,"[11]; HIV-1 JV 1083 (subtype /G, R5) in PBMCs",0.35 nM
same,IC50,"[11]; HIV-1 RW/92/016 (subtype A/A, R5) in PBMCs",0.41 nM
same,IC50,"[11]; HIV-1 UG/92/046 (subtype D/D, X4) in PBMCs",0.5 nM
same,IC50,[12],0.53 nM
